# In patent US9861625B2, “Methods and compositions for treating cancer through inhibition of PI3K” (Duke University, priority 2014, dated 2018):
# pIC50: −log10 of the molar value.
# Tests used:
# [1] = tested on: nine different cells lines; experiment: IPA-3 as a single agent in nine cell lines; format: cell-based
# Experimental: The 3-(4,5-dimethylthiazol-2-yl)-2,5-diphenyltetrazolium bromide (MTT) cell viability assay was used to determine cell viability in response to drug treatment. Five replicates per concentration tested were carried out in serial dilutions with a total of ten concentrations with a 50% reduction in drug concentration per dilution for each plate. A total of 15 μl of MTT reagent was added to each drug-treated well and incubated for three hours in 37° C. Detergent was added to each drug-treated well and incubated overnight at room temperature without exposure to light. Absorbance was measured at 570 nm using a plate reader from Tecan Group. The IC50 concentration was determined using the publicly available ED50 plus v1.0 software program.
# Small-molecule inhibition of PAK1 with IPA-3 achieved consistent results. PAK1 inhibition with IPA-3 was tested in nine different cells lines, both individually and in combination with BEZ235.
# [2] = tested on: Ly8 cells and normal human B cells (tonsil lymphocytes); experiment: Toxicity in Ly8 cells compared to normal B cells (alamar blue); format: cell-based; conditions: alone and in combination; 36 hours
# Experimental: BEZ235 was tested in combination with the PAK1 inhibitor IPA-3 using Calcusyn software by applying the Chou-Talalay method. BJAB, HBL1, HBL2, HT, Ly8, and Riva cells were tested, as were normal tonsil lymphocytes. Ly8 and tonsillar lymphocytes were cultured in 96-well plates (approximately 500,000 cells/ml) for 36 hours in Iscove's modified Dulbecco's medium (IMDM) with 20% human AB serum. Viability was assessed with alamar blue dye and normalized to the lowest concentration of BEZ235 in each group.
# Finally, BEZ235 and IPA-3 were administered separately and concurrently to normal human B cells to ascertain a therapeutic window between normal and malignant cells.
structure (smiles),measurement,setting,value
Oc1ccc2ccccc2c1SSc1c(O)ccc2ccccc12 [IPA-3],"cell death at 10 μmol/L, upper end of the range",[1]; 10 μmol/L,no cell death
same,pIC50,"[1]; nine cell lines, read-out: observed IC50 values, lower end of range",≤ 6.16
same,toxicity in Ly8 cells as compared to normal B cells,[2],selective toxicity
